Measured values reported in patent EP4635969A1, “NOVEL GLUCOCORTICOID, METHOD FOR PREPARING SAME, AND USE THEREOF” (Tianjin Pharmaceutical Biotechnology Co., Ltd., priority 2022, dated 2024).

Assays:
[1] = tested on: inflammatory cytokines IL-6 and IL-12; test: Anti-asthma pharmacodynamic experiment: inflammatory cytokines in bronchoalveolar lavage fluid (ELISA); type: in vivo, female BALB/c mice; conditions: for Effects on inflammatory cytokines in bronchoalveolar lavage fluid of mice: compared with the model group
[2] = tested on: dry eye syndrome model New Zealand rabbits; test: Dry eye syndrome experiment (benzalkonium chloride model): corneal fluorescein sodium staining; type: in vivo, male New Zealand White rabbits; conditions: for inflammatory response on the ocular surface / ocular symptoms: compared with the model group
[3] = tested on: inflammatory cytokines (TNF-α); test: Anti-uveitis pharmacodynamic experiment (LPS model): inflammatory cytokines in aqueous humor (ELISA); type: in vivo, male SD rats; conditions: values not given
Description: Pharmacological Example 5. Pharmacodynamic Experiment on Anti-Uveitis
Test samples: Compounds 23 and 26 were prepared as 5 mg/5 mL ophthalmic suspensions with reference to the formulation of Fluorometholone Eye Drops, and stored at room temperature protected from light until use.
Positive control drug: Fluorometholone Eye Drops (specification: 5 mL/5 mg; Santen Pharmaceutical (CHINA) Co., Ltd.; Lot No. : J20180068) was used as the positive control drug and stored at room temperature protected from light until use.
Fifty male SD rats underwent a one-week adaptive feeding period. The animals were randomly divided into 5 groups: Group 1 served as the blank control group, and Groups 2 to 5 were the model group, fluorometholone group, compound 23 group, and compound 26 group, respectively. Groups 2 to 5 were used to establish rat uveitis models by single subcutaneous injection of 1 mg/kg LPS (Salmonella; Sigma; Lot No. 0000164114) into the plantar tissue of the hindpaw. Salmonella endotoxin was dissolved in normal saline to prepare an injection solution at a concentration of 2 mg/mL, which was injected subcutaneously at 1 mg/kg into the plantar tissue of one paw of the rats. Group 1 was injected with an equal volume of normal saline.
After modeling, 40 µL of normal saline was administered to the eyes (bilateral) of the rats in the blank control group and model group, and 40 µL of the corresponding drugs were administered to the eyes (bilateral) of the […] in the compound 23 group, compound 26 group, and positive drug fluorometholone group, 3 times a day for 2 days. Table 8. Animal grouping and drug administration dosages
Thirty hours after modeling, aqueous humor was collected from both eyes of rats, and partial eyeball tissues of rats were collected. The level of the inflammatory cytokines (TNF-α) was detected using a rat ELISA assay kit.
Statistical analysis was performed using SPSS software. Measurement data were expressed as mean ± standard deviation. One-way ANOVA was used for intergroup comparisons. For data with homogeneous variance, LSD test was used; for data with heterogeneous variance, Dunnett-t test was used. A value of P < 0.05 was considered statistically significant.

[4] = tested on: inflammatory bowel disease model rats; test: Inflammatory bowel disease experiment (TNBS model): macroscopic injury score of the colon; type: in vivo; conditions: for inflammatory response on the intestinal surface / intestinal symptoms: compared with the model group
Description: Pharmacological Example 7: Pharmacodynamic Experiment on Inflammatory Bowel Disease in Rats
Test samples: The jet-milled compounds 23 and 34 were accurately weighed and prepared as 2 mg/mL clear solutions using anhydrous ethanol, respectively. The solutions were then diluted to 0.2 mg/mL with double-distilled water as the test samples, and stored at room temperature protected from light until use.
Animals in Groups 2 to 5 were subjected to trinitrobenzene sulfonic acid (TNBS) modeling as follows: A 5% TNBS aqueous solution was adjusted to 20 mg/mL TNBS (50% ethanol solution) with alcohol and water. After fasting for 24 h, the rats were anesthetized using an inhalation anesthesia machine. A silicone hose was inserted approximately 8 cm into the anus, and then TNBS was injected at a dose of 50 mg/kg. After injection, the rats were placed vertically for 1 min to prevent the backflow of TNBS solution. Then, the rats were placed into their cages for observation until the animals recovered.
Drug administration started one day before modeling, with one dose administered 1 hour before modeling and then once a day for 5 consecutive days. […] Table 14. Animal grouping and drug administration dosages
The experiment ended on day 5 after TNBS modeling. After isoflurane anesthesia, blood was collected from the hearts, and the rats were euthanized. The abdominal cavity was rapidly opened, and the macroscopic injury scoring of the colon in rats was performed based on the adhesion, obstruction, thickening of the colonic wall, colonic congestion, and necrosis in the colon area. After clearing the colonic contents, the colonic samples were longitudinally incised. The proximal 2/3 of the colon was excised, prepared into Swiss rolls, and stored in 4% neutral buffered formalin for histopathological analysis. Tissues were trimmed, dehydrated, paraffin-embedded, and sectioned (approximately 5 µm thickness), stained with hematoxylin-eosin (HE), and observed for pathological changes. Pathologists performed blind scoring of colonic lesions.
Quantitative indices were first subjected to Bartlett's test for homogeneity of variance. When the variance was homogeneous (P > 0.05), one-way analysis of variance (ANOVA) was used for a statistical test; if there was statistical significance (P ≤ 0.05), Dunnett's t-test (Dunnett method) was used to compare intergroup differences; if there was no statistical significance (P > 0.05), the statistical analysis was concluded. When the variance was heterogeneous (P ≤ 0.05), Kruskal-Wallis H rank-sum test (K-W method) was used for statistical analysis: if there was statistical significance (P ≤ 0.05), Mann-Whitney U test (M-W method) was further performed to compare intergroup differences; if there was no statistical significance (P > 0.05), the statistical analysis was concluded.

[5] = tested on: asthma model mice; test: Anti-asthma pharmacodynamic experiment: airway hyperresponsiveness (Penh) after methacholine challenge; type: in vivo, female BALB/c mice; conditions: for Effects on airway hyperresponsiveness (Penh values) in mice: compared with the model group
[6] = Pharmacokinetic (PK) experiment in rats; type: in vivo, male SD rats; conditions: same experimental conditions
Description: Pharmacological Example 11. Pharmacokinetic (PK) Experiment in Rats
The solution was prepared before administration.
Animals: 6 male SD rats, SPF grade (Beijing Vital River Laboratory Animal Technology Co., Ltd.).
Animal grouping: The animals were weighed prior to administration, and the dosage was calculated based on body weight. The animals in the oral administration group were fasted overnight (10-14 hours) before administration, and food was reintroduced 4 hours post-administration. Table 23. Animal grouping and drug administration dosages for pharmacokinetic (PK) experiment in rats
Blood collection time points: Blood was collected from the jugular vein at 2 min, 5 min, 15 min, 30 min, 1 h, 2 h, 4 h, 8 h, and 24 h after administration. Approximately 0.25 mL of blood was collected for each sample, anticoagulated with heparin sodium, and then placed on ice immediately.
Plasma sample processing: Blood samples were placed on ice after collection and centrifuged to separate plasma within 1 hour (centrifugation conditions: 6000 rpm, 3 minutes, 2-8 °C ). Plasma samples were stored in a -80°C freezer before analysis.
Data processing: Pharmacokinetic parameters were calculated using Phoenix WinNonlin 8.2.0 based on the plasma drug concentration data at different time points.

[7] = tested on: dry eye syndrome model New Zealand rabbits; test: Dry eye syndrome experiment (benzalkonium chloride model): tear secretion test with phenol red cotton threads; type: in vivo, male New Zealand White rabbits; conditions: for tear secretion: compared with the model group
[8] = bronchoalveolar lavage fluid, 0.3 mg/mL, 50 µL intratracheally once daily for 3 days
[9] = D3, 1 mg/mL, 50 µL/eye, 3 times a day for 14 days
[10] = D7, 1 mg/mL, 50 µL/eye, 3 times a day for 14 days
[11] = D15, 1 mg/mL, 50 µL/eye, 3 times a day for 14 days

Compound: C[C@]12C=CC(=O)C=C1CC[C@H]1[C@@H]3C[C@H]4OC(c5ccc(CSC6CCOC6=O)cc5)O[C@@]4(C(=O)CO)[C@@]3(C)C[C@H](O)[C@@]12Cl (stereo partly drawn) [Compound 23, (6aS,6bR,7S,8aS,8bS,11aR,12aS,12bS)-6b-Chloro-7-hydroxy-8b-(2-hydroxyacetyl)-6a,8a-dimethyl-10-(4-(((2-oxotetrahydrofuran-3-yl)thio)methyl)phenyl)-1,2,6a,6b,7,8,8a,8b,11a,12,12a,12b-do decahydro-4H-naphtho[2',1':4,5]indeno[1,2-d][1,3]dioxol-4-one]
- IL-6 [1, 8]: 11.1 ± 5.5 pg/mL
- IL-12 [1, 8]: 7.0 ± 3.9 pg/mL
- Effects on inflammatory cytokines in bronchoalveolar lavage fluid of mice [1]: extremely significantly decreased the levels of IL-6 and IL-12 in mice
- Corneal fluorescein sodium staining score D3 [2, 9]: 2.17 ± 0.98
- Corneal fluorescein sodium staining score D7 [2, 10]: 1.0 ± 0.98
- Corneal fluorescein sodium staining score D15 [2, 11]: 1.0 ± 0.63"
- inflammatory response on the ocular surface / ocular symptoms [2]: significantly inhibited the inflammatory response on the ocular surface on day 15
- inflammatory cytokines in aqueous humor [3]: suppressed inflammatory cytokines in aqueous humor
- Macroscopic injury score ([4]; colon, day 5 after TNBS, 2 mg/kg once a day (compounds intraintestinally, dexamethasone by gavage)): 4.83 ± 1.10"
- inflammatory response on the intestinal surface / intestinal symptoms [4]: significantly inhibited the inflammatory response on the intestinal surface
- Penh values in mice, Methacholine concentration (mg/ml) 0 ([5]; 0.3 mg/mL, 50 µL intratracheally once daily for 3 days, methacholine 0 mg/ml): 1.12 ± 0.30
- Penh values in mice, Methacholine concentration (mg/ml) 6.25 ([5]; 0.3 mg/mL, 50 µL intratracheally once daily for 3 days, methacholine 6.25 mg/ml): 1.55 ± 0.29
- Penh values in mice, Methacholine concentration (mg/ml) 12.5 ([5]; 0.3 mg/mL, 50 µL intratracheally once daily for 3 days, methacholine 12.5 mg/ml): 1.84 ± 0.38
- Effects on airway hyperresponsiveness (Penh values) in mice [5]: significantly decreased the Penh values in mice
- pharmacokinetic properties (plasma clearance rate, systemic exposure) [6]: pharmacokinetic properties similar to those of compound 8
- Wetting length of phenol red cotton threads (mm) D0 ([7]; D0, 1 mg/mL, 50 µL/eye, 3 times a day for 14 days): 28.24 ± 6.22 mm
- Wetting length of phenol red cotton threads (mm) D3 [7, 9]: 29.4 ± 4.63 mm
- Wetting length of phenol red cotton threads (mm) D7 [7, 10]: 31.88 ± 6.20 mm
- Wetting length of phenol red cotton threads (mm) D15 [7, 11]: 36.05 ± 5.74" mm
- tear secretion [7]: significantly increased the tear secretion on day 15

Compound: C[C@]12C=CC(=O)C=C1CC[C@H]1[C@@H]3C[C@H]4OC(c5ccc(CNC6COC(=O)C6)cc5)O[C@@]4(C(=O)CO)[C@@]3(C)C[C@H](O)[C@@]12F (stereo partly drawn) [Compound 21, (6aS,6bR,7S,8aS,8bS,11aR,12aS,12bS)-6b-Fluoro-7-hydroxy-8b-(2-hydroxyacetyl)-6a,8a-dimethyl-10-(4-(((5-oxotetrahydrofuran-3-yl)amino)methyl)phenyl)-1,2,6a,6b,7,8,8a,8b,11a,12,12a,12b-dodecahydro-4H-naphtho[2',1':4,5]indeno[1,2-d][1,3]dioxol-4-one]
- Effects on inflammatory cytokines in bronchoalveolar lavage fluid of mice [1]: pharmacological effects similar to those of compound 23
- inflammatory response on the ocular surface / ocular symptoms [2]: significantly alleviated the ocular symptoms in dry eye syndrome model New Zealand rabbits
- inflammatory cytokines in aqueous humor [3]: suppressed inflammatory cytokines in aqueous humor
- inflammatory response on the intestinal surface / intestinal symptoms [4]: significantly alleviated the intestinal symptoms in inflammatory bowel disease model rats
- Effects on airway hyperresponsiveness (Penh values) in mice [5]: significantly decreased the Penh values in mice
- pharmacokinetic properties (plasma clearance rate, systemic exposure) [6]: pharmacokinetic properties similar to those of compound 8
- tear secretion [7]: significantly increased the tear secretion

Compound: C[C@]12C=CC(=O)C=C1CC[C@H]1[C@@H]3C[C@H]4OC(c5ccc(CSC6COC(=O)C6)cc5)O[C@@]4(C(=O)CO)[C@@]3(C)C[C@H](O)[C@@]12Cl (stereo partly drawn) [Compound 26, (6aS,6bR,7S,8aS,8bS,11aR,12aS,12bS)-6b-Chloro-7-hydroxy-8b-(2-hydroxyacetyl)-6a,8a-dimethyl-10-(4-(((5-oxotetrahydrofuran-3-yl)thio)methyl)phenyl)-1,2,6a,6b,7,8,8a,8b,11a,12,12a,12b-do decahydro-4H-naphtho[2',1':4,5]indeno[1,2-d][1,3]dioxol-4-one]
- Effects on inflammatory cytokines in bronchoalveolar lavage fluid of mice [1]: pharmacological effects similar to those of compound 23
- inflammatory response on the ocular surface / ocular symptoms [2]: significantly alleviated the ocular symptoms in dry eye syndrome model New Zealand rabbits
- inflammatory cytokines in aqueous humor [3]: suppressed inflammatory cytokines in aqueous humor
- inflammatory response on the intestinal surface / intestinal symptoms [4]: significantly alleviated the intestinal symptoms in inflammatory bowel disease model rats
- Effects on airway hyperresponsiveness (Penh values) in mice [5]: significantly decreased the Penh values in mice
- pharmacokinetic properties (plasma clearance rate, systemic exposure) [6]: pharmacokinetic properties similar to those of compound 8
- tear secretion [7]: significantly increased the tear secretion

Compound: C[C@]12C=CC(=O)C=C1CC[C@H]1[C@@H]3C[C@H]4OC(c5ccc(CSC6CCOC6=O)nc5)O[C@@]4(C(=O)CO)[C@@]3(C)C[C@H](O)[C@@]12F (stereo partly drawn) [Compound 47, (6aS,6bR,7S,8aS,8bS,11aR,12aS,12bS)-6b-Fluoro-7-hydroxy-8b-(2-hydroxyacetyl)-6a,8a-dimethyl-10-(6-(((2-oxotetrahydrofuran-3-yl)thio)methyl)pyridin-3-yl)-1,2,6a,6b,7,8,8a,8b,11a,12,12a,12 b-dodecahydro-4H-naphtho[2',1':4,5]indeno[1,2-d][1,3]dioxol-4-one]
- Effects on inflammatory cytokines in bronchoalveolar lavage fluid of mice [1]: pharmacological effects similar to those of compound 23
- inflammatory response on the ocular surface / ocular symptoms [2]: significantly alleviated the ocular symptoms in dry eye syndrome model New Zealand rabbits
- inflammatory cytokines in aqueous humor [3]: suppressed inflammatory cytokines in aqueous humor
- inflammatory response on the intestinal surface / intestinal symptoms [4]: significantly alleviated the intestinal symptoms in inflammatory bowel disease model rats
- Effects on airway hyperresponsiveness (Penh values) in mice [5]: significantly decreased the Penh values in mice
- pharmacokinetic properties (plasma clearance rate, systemic exposure) [6]: pharmacokinetic properties similar to those of compound 8
- tear secretion [7]: significantly increased the tear secretion
